# System: C57BL/6J mouse model of obesity
# Assay: Example 10 mouse diet-induced obesity
# Assay type: in vivo
# Settings: low fat control diet (D12328) with vs without test article
# Excerpt: The high-fat diet-fed C57BL/6J mouse model of human diabetes, originally introduced by Surwit and colleagues (Surwit, R S, et al. (1988) “Diet-induced type […] diabetes in C57BL/6J mice”, Diabetes 37: 1163-1167) is a widely accepted, clinically relevant, polygenic model that induces obesity, dyslipidemia, glucose- and insulin-resistance as early as 3 weeks after commencing the high fat diet (Winzell, M S and Ahren, B (2004) “The high-fat diet-fed mouse: a model for studying mechanisms and treatment of impaired glucose tolerance and type 2 diabetes”, Diabetes 53 Suppl 3: S215-219). This model was used to investigate the effects of indole and indole-related Test Articles. Avandia (rosiglitazone) was used as a control Test Article. […]
# In these studies and the accompanying figures, Diet D12328 from Research Diets is referred to as the “Low Fat” or Control diet/chow, while Diet D12331 from Research Diets is referred to as the “High Fat” diet. […] The Test Article content was calculated such that ad libitum consumption by the animals would deliver doses (in mg of Test Article per kg animal weight per day) approximating those listed in Table 5.
# Animals were maintained on the diets for up to eleven weeks. Body weights were recorded weekly. […] The serum was analyzed for glucose, total cholesterol, triglycerides (TG) and lysophospholipid (LPC) content. […]
compound,measurement,value
"Cc1c(C(=O)C(N)=O)c2c(OCC(=O)NS(=O)(=O)CCCC(=O)O)cccc2n1Cc1ccccc1 [ILY-IV-40, 4-[2-(3-Aminooxalyl-1-benzyl-2-methyl-1H-indol-4-yloxy)-acetylsulfamoyl]-butyric acid]",effect in animals fed a low fat control diet,No or little effect
